Columns and labels:
[1] = tested on: RKO cells (human colon cancer cell lines); experiment: Cell growth inhibition study using RKO cells (CellTiter-Glo); format: cell-based; conditions: 72 h, 3 days
Description: The in vitro cell growth inhibition study using RKO cells (human colon cancer cell lines) was conducted as described below.
RKO cells (ATCC, Cat#: CRL-2577) cultured in a MEM medium (GIBCO, Cat#:10370-088) supplemented with 10% FBS, 1 mM L-glutamine (GIBCO, Cat#:25030), and 1 mM sodium pyruvate (GIBCO, Cat#:11360) were seeded in a 96-well flat bottom microplate (COSTAR, Cat#:3904) at 2×10^3 cells (150 μl) and cultured in an incubator containing 5% CO2 at 37° C. for 1 day. The compound according to the present invention subjected to serial dilution with dimethyl sulfoxide or dimethyl sulfoxide alone was added to a MEM medium containing 10% FBS, 1 mM L-glutamine, and 1 mM sodium pyruvate. The resultant medium containing the compound or dimethyl sulfoxide alone was added to the RKO cells in the culture plate by 50 μl/well at the final concentration of the compound to 10, 3, 1, 0.3, 0.1, 0.03, 0.01, 0.003, and 0 μM, respectively. Another RKO cell culture plate separately prepared was allowed to stand at room temperature for 30 minutes, then 100 μl of the medium was removed, and added 50 μl of CellTiter-Glo® 2.0 Assay (Promega, Cat#:G9242) to each well. After the plates were placed in the dark for 10 minutes, the luminescence level derived from viable cells in each well was measured by the Multimode Plate Reader (PerkinElmer, EnSpire). The cells treated with the compound or dimethyl sulfoxide alone were cultured at 37° C. in an incubator containing 5% CO2 for an additional 3 days. After incubation, the culture plate was placed at room temperature for 30 minutes, and 150 μl of the supernatant was removed from each well to adjust the amount of the remaining cell culture solution to 50 μl each. To 50 μl of the remaining cell culture solution, the equivalent amount of CellTiter-Glo® 2.0 Assay was added. After the cell culture plate was placed in the dark for 10 minutes, the luminescence level derived from viable cells in each well was assayed with the use of the Multimode Plate Reader. The cell growth rate was calculated by the formulae shown below and the concentration at which the cell growth rate became 50%; i.e., the concentration of the compound according to the present invention at which cell growth would be inhibited by 50% was determined (GI50 (nM)). Cell growth rate (%)=(T−C0)/(C−C0)×100, provided that T is equal to or greater than C0(T≥C0) Cell growth rate (%)=(T−C0)/C0×100, provided that T is less than C0(T<C0) C0: Luminescence level in each well when the compound is added (count per second) C: Luminescence level in each well when dimethyl sulfoxide is added alone (count per second) T: Luminescence level in each well when the test compound is added (count per second)
As control compounds, conventional Comparative Example A (WO 2010/056563 (Example 31)) and Comparative Example B having inhibitory activity against Akt were used.
The GI50 levels of representative compounds according to the present invention and reference compounds in RKO cells were evaluated, and the results are shown in Table 5.

[2] = target: Rsk1 (Homo sapiens (Human), UniProt Q15418); experiment: Inhibitory effects on Rsk1 kinase activity (QSS Assist FP assay kit); format: biochemical; conditions: Rsk1, ATP 30 μM; read-out: Rsk inhibitory activity IC50
Chain of Rsk1 (Q15418 whole entry): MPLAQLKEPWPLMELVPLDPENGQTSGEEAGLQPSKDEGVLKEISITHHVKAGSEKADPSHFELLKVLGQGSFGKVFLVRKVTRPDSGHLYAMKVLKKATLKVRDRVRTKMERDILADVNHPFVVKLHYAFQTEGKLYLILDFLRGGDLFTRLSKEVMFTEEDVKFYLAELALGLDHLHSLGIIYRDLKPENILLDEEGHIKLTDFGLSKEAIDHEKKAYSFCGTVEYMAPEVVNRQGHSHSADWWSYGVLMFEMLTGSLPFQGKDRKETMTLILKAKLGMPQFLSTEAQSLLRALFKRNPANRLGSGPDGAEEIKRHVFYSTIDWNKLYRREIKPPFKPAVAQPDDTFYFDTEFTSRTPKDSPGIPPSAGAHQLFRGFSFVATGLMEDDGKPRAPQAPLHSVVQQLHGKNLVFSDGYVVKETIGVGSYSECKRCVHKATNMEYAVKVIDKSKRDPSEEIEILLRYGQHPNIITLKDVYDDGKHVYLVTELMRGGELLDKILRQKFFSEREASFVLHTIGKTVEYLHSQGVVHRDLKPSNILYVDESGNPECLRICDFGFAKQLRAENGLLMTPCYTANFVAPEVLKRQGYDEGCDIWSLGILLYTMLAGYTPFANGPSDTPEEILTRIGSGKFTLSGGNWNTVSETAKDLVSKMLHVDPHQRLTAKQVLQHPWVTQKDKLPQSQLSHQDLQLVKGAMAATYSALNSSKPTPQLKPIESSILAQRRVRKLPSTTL
Description: Inhibitory activity of the compound according to the present invention on Rsk1 kinase activity in vitro was assayed using the QSS Assist™ FP assay kit (Carna Biosciences, Inc.).
In the inhibition assay of inhibitory activity of the compound, the test compound was diluted by serial dilution with dimethyl sulfoxide (DMSO). Subsequently, an Rsk1 protein, a substrate peptide (final concentration: 100 nM), magnesium chloride (final concentration: 10 mM), ATP (final concentration: 30 μM), and the solution of the test compound in DMSO (DMSO final concentration: 5%) were added to the kinase reaction buffer (20 mM HEPES (pH 7.4), 2 mM dithiothreitol, 0.01% Tween-20), and the mixture was incubated at 25° C. for 40 minutes to perform the kinase reaction. The IMAP Progressive Binding Reagent diluted to 400-fold with the IMAP Progressive Binding Buffer A (Molecular Devices, LLC) was added to terminate the kinase reaction.

[3] = target: human Akt1 (Homo sapiens (Human), UniProt P31749); experiment: Inhibitory effects on Akt1 kinase activity (TR-FRET, biotinylated Crosstide); format: biochemical; conditions: Akt1, ATP 150 μM, pre-incubation 120 minutes at 25° C.; read-out: AKT inhibitory activity IC50
Chain of human Akt1 (P31749 whole entry): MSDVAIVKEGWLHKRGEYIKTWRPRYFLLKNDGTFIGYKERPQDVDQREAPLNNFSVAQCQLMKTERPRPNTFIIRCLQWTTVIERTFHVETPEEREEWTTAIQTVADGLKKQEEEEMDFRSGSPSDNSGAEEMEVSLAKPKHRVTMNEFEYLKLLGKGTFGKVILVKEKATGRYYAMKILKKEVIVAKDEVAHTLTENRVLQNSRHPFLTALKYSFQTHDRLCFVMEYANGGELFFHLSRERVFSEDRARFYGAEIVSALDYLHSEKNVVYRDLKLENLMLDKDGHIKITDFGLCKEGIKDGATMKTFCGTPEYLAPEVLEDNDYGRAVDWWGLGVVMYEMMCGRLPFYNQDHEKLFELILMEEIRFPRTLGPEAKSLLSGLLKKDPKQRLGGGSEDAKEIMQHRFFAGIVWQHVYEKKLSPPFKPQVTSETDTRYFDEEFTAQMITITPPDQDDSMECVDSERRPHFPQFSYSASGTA
Description: Akt1 was prepared and assays of inhibitory activity of the compound according to the present invention against Akt1 kinase activity in vitro were conducted according to the method described in Biochem. J., vol. 385, pp. 399-408, 2005 and Cancer Res., vol. 68, pp. 2366-2374, 2008. In the preparation of Akt1 protein, human Akt1 tagged with the middle T antigen was expressed in an insect cell Sf9, Akt1 was prepared through affinity purification and activation by PDK1, and the resultant was stored at −80° C. until the inhibition assays of the compounds. In the inhibition assay of the compounds, Akt1 and the compound according to the present invention were subjected to pre-incubation at 25° C. for 120 minutes in a reaction buffer (15 mM Tris-HCl, pH 7.5, 0.01% Tween-20, 2 mM DTT). Subsequently, biotinylated Crosstide (biotin-[…], Millipore), MgCl2, and ATP were added as substrates at the final concentration of 500 nM, 10 mM, and 150 μM, respectively, and the reaction was allowed to proceed at 25° C. for 60 minutes. EDTA was added to the final concentration of 40 mM to terminate the reaction, a detection liquid containing the Eu-anti-phospho-Crosstide antibody (PerkinElmer) and SureLight APC-SA (PerkinElmer) at the final concentration of 0.5 nM and 62.5 nM, respectively was added, and the reaction was allowed to proceed at room temperature for 2 hours. In the end, the fluorescence levels irradiated with an excitation light of 337 nm were assayed at two different wavelength levels (i.e., 620 nm and 665 nm) using PI-HERAstar FS (BMG LABTECH) or PHERAstar (BMG LABTECH). The level of the phosphorylation reaction was determined on the basis of the ratio of fluorescence levels at two wavelength levels, and the concentration of the compound at which phosphorylation could be inhibited by 50% was defined as the IC50 level (nM) and shown in Table 2.
As reference compounds, conventional Comparative Example A (WO 2010/056563 (Example 31)) and Comparative Example B having inhibitory activity against Akt were used.

[4] = target: S6K1 (Homo sapiens (Human), UniProt P23443); experiment: Inhibitory effects on S6K1 kinase activity (QSS Assist FP assay kit); format: biochemical; conditions: S6K1, ATP 25 μM; read-out: S6K inhibitory activity IC50
Chain of S6K1 (P23443 whole entry): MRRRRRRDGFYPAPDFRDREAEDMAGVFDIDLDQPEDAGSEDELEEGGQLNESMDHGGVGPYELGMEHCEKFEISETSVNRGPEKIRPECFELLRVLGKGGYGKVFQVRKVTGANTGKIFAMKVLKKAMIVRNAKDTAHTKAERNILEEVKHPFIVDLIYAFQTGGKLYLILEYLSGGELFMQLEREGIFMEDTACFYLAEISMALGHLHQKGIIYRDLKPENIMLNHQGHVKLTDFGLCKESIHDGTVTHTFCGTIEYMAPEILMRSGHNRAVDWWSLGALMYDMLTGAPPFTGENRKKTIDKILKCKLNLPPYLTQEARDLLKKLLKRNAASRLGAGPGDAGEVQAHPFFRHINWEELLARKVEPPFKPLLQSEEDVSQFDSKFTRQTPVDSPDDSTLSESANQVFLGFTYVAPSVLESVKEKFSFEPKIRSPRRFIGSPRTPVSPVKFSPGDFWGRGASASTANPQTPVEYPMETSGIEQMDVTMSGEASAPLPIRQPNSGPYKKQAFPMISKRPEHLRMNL
Description: Inhibitory activity of the compound according to the present invention on S6K1 kinase activity in vitro was assayed using the QSS Assist™ FP assay kit (Carna Biosciences, Inc.).
In the inhibition assay for inhibitory activity of the compound, the test compound was diluted by serial dilution with dimethyl sulfoxide (DMSO). Subsequently, an S6K protein, a substrate peptide (final concentration: 100 nM), magnesium chloride (final concentration: 5 mM), ATP (final concentration: 25 μM), and the solution of the test compound in DMSO (final DMSO concentration: 5%) were added to the kinase reaction buffer (20 mM HEPES (pH 7.4), 2 mM dithiothreitol, 0.01% Tween-20), and the mixture was incubated at 25° C. for 30 minutes to perform the kinase reaction. The IMAP Progressive Binding Reagent diluted to 400-fold with the IMAP Progressive Binding Buffer A (Molecular Devices, LLC) was added thereto to terminate the kinase reaction. The reaction product was allowed to stand at room temperature in the dark for 120 minutes and assayed with the use of PHERAstar (BMG LABTECH; excitation wavelength: 485 nm; detection wavelength: 520 nm). The level of phosphorylation reaction was determined based on the degree of fluorescence polarization, and the concentration of the compound at which phosphorylation could be inhibited by 50% was defined as the IC50 level (nM) and shown in Table 4.

CC1(C)C(=O)Nc2ncnc(N3CCC(c4nc(-c5nnc(C(F)F)o5)ccc4NCCN4CCCC4)CC3)c21 [Compound 30, 4-(4-(6-(5-(Difluoromethyl)-1,3,4-oxadiazol-2-yl)-3-((2-(pyrrolidin-1-yl)ethyl)amino)pyridin-2-yl)piperidin-1-yl)-5,5-dimethyl-5H-pyrrolo[2,3-d]pyrimidin-6(7H)-one]
GI50 [1]: 82 nM
IC50 [2]: 1.7 nM
IC50 [3]: 14.5 nM
IC50 [4]: 0.5 nM

COc1cncc(-c2ccc(NCCNC(C)C)c(C3CCN(c4ncnc5c4C(C)C(=O)N5)CC3)n2)c1 (stereo not shown) [Compound 15, 4-(4-(5-((2-(Isopropylamino)ethyl)amino)-5′-methoxy-[2,3′-bipyridin]-6-yl)piperidin-1-yl)-5-methyl-5H-pyrrolo[2,3-d]pyrimidin-6(7H)-one]
GI50 [1]: 122 nM
IC50 [2]: 1.1 nM
IC50 [3]: 2.1 nM
IC50 [4]: 0.7 nM

CC(C)(C)NCCNc1ccc(-c2noc(C(F)F)n2)nc1C1CCN(c2ncnc3c2C(C)(C)C(=O)N3)CC1 [Compound 41, 4-(4-(3-((2-(Tert-butylamino)ethyl)amino)-6-(5-(difluoromethyl)-1,2,4-oxadiazol-3-yl)pyridin-2-yl)piperidin-1-yl)-5,5-dimethyl-5H-pyrrolo[2,3-d]pyrimidin-6(7H)-one]
GI50 [1]: 86 nM
IC50 [2]: 1.6 nM
IC50 [3]: 7.2 nM
IC50 [4]: 0.3 nM

CC1C(=O)Nc2ncnc(N3CCC(c4nc(-c5ccnc(F)c5)ccc4NCCN4CCCC4)CC3)c21 (stereo not shown) [Compound 13, 4-(4-(2′-Fluoro-5-((2-(pyrrolidin-1-yl)ethyl)amino)-[2,4′-bipyridin]-6-yl)piperidin-1-yl)-5-methyl-5H-pyrrolo[2,3-d]pyrimidin-6(7H)-one]
GI50 [1]: 111 nM
IC50 [2]: 1.4 nM
IC50 [3]: 1.4 nM
IC50 [4]: 0.4 nM

CC(C)(C)NCCNc1ccc(-c2nnc(C(F)(F)F)o2)nc1C1CCN(c2ncnc3c2C(C)(C)C(=O)N3)CC1 [Compound 32, 4-(4-(3-((2-(Tert-butylamino)ethyl)amino)-6-(5-(trifluoromethyl)-1,3,4-oxadiazol-2-yl)pyridin-2-yl)piperidin-1-yl)-5,5-dimethyl-5H-pyrrolo[2,3-d]pyrimidin-6(7H)-one]
GI50 [1]: 89 nM

CC1C(=O)Nc2ncnc(N3CCC(c4nc(-c5ccoc5)ccc4NCCN4CCCC4)CC3)c21 (stereo not shown) [Compound 14, 4-(4-(6-(Furan-3-yl)-3-((2-(pyrrolidin-1-yl)ethyl)amino)pyridin-2-yl)piperidin-1-yl)-5-methyl-5H-pyrrolo[2,3-d]pyrimidin-6(7H)-one]
GI50 [1]: 118 nM
IC50 [2]: 1.7 nM
IC50 [3]: 0.5 nM
IC50 [4]: 0.9 nM

CC1C(=O)Nc2ncnc(N3CCC(c4nc(-c5nccs5)ccc4NCCN4CCCC4)CC3)c21 (stereo not shown) [Compound 24, 5-Methyl-4-(4-(3-((2-(pyrrolidin-1-yl)ethyl)amino)-6-(thiazol-2-yl)pyridin-2-yl)piperidin-1-yl)-5H-pyrrolo[2,3-d]pyrimidin-6(7H)-one]
GI50 [1]: 130 nM
IC50 [3]: 1.9 nM
IC50 [4]: 0.6 nM

CC(C)(C)NCCNc1ccc(-c2cncc(F)c2)nc1C1CCN(c2ncnc3c2C(C)(C)C(=O)N3)CC1 [Compound 1, 4-(4-(5-((2-(Tert-butylamino)ethyl)amino)-5′-fluoro-[2,3′-bipyridin]-6-yl)piperidin-1-yl)-5,5-dimethyl-5H-pyrrolo[2,3-d]pyrimidin-6(7H)-one]
GI50 [1]: 136 nM
IC50 [2]: 1.5 nM
IC50 [3]: 6.8 nM
IC50 [4]: 0.4 nM

CC1C(=O)Nc2ncnc(N3CC=C(c4nc(-c5cncc(F)c5)ccc4NCCN4CCCC4)CC3)c21 (stereo not shown) [Compound 26, 4-(5-Fluoro-5′-((2-(pyrrolidin-1-yl)ethyl)amino)-5″,6″-dihydro-[3,2′:6′,4″-terpyridine-]-1″(2″H)-yl)-5-methyl-5H-pyrrolo[2,3-d]pyrimidin-6(7H)-one]
GI50 [1]: 124 nM
IC50 [4]: 0.6 nM

CC1C(=O)Nc2ncnc(N3CCC(c4cc(-c5cc(C(F)(F)F)nn5C)cnc4NCCN4CCCC4)CC3)c21 (stereo not shown) [Compound 27, 5-Methyl-4-(4-(5-(1-methyl-3-(trifluoromethyl)-1H-pyrazol-5-yl)-2-((2-(pyrrolidin-1-yl)ethyl)amino)pyridin-3-yl)piperidin-1-yl)-5H-pyrrolo[2,3-d]pyrimidin-6(7H)-one]
GI50 [1]: 48 nM
IC50 [2]: 1.8 nM
IC50 [3]: 1.6 nM

CC1(C)C(=O)Nc2ncnc(N3CCC(c4nc(-c5nc(C(F)(F)F)no5)ccc4NCCN4CCCC4)CC3)c21 [Compound 44, 5,5-Dimethyl-4-(4-(3-((2-(pyrrolidin-1-yl)ethyl)amino)-6-(3-(trifluoromethyl)-1,2,4-oxadiazol-5-yl)pyridin-2-yl)piperidin-1-yl)-5H-pyrrolo[2,3-d]pyrimidin-6(7H)-one]
GI50 [1]: 102 nM
IC50 [2]: 0.5 nM
IC50 [3]: 2.6 nM
IC50 [4]: 0.4 nM
